In paper PMC5615911 (Toxicology Reports, 2016):
Where two headings read alike, the source gives them in different places.

How the values were obtained:
[1] = tested on: S. typhimurium strains TA98, TA100, TA1535, TA1537; settings: up to 5000 μg/plate; cited from earlier work
[2] = tested on: TA1535; settings: plate incorporation, absence of metabolic activation; cited from earlier work
[3] = male, cited from earlier work
[4] = diet, 92 or 93 days; cited from earlier work
[5] = tested on: CHO-WBL cells; settings: ±metabolic activation, up to 5000 μg/mL; cited from earlier work
[6] = tested on: TA100; settings: pre-incubation, presence of metabolic activation; cited from earlier work
[7] = tested on: femoral bone marrow polychromatic erythrocytes; settings: ip, cited from earlier work
[8] = tested on: GPCRs, ion channels, nuclear receptors, transporters; settings: 10 μM; ref Senomyx, unpublished results; cited from earlier work
[9] = 28 days oral gavage, highest dose evaluated; ref Senomyx, unpublished results; cited from earlier work
[10] = ref Chi, unpublished results, cited from earlier work
[11] = molecular target: T1, CYP3A4 (Homo sapiens, UniProt P08684); settings: ref Senomyx, unpublished results; cited from earlier work
[12] = molecular target: T1, CYP3A4; settings: ref Senomyx, unpublished results; cited from earlier work; remark: listed apart in the source
[13] = In vitro metabolism, rat liver microsomes; type: in vitro ADME, Sprague-Dawley rat; settings: 60 min, with NADPH, positive control
[14] = In vitro metabolism, human liver microsomes; type: in vitro ADME; settings: 60 min, with NADPH, positive control
[15] = female, oral gavage 10 mg/kg bw
[16] = female, oral gavage 30 mg/kg bw
[17] = female, oral gavage 100 mg/kg bw

T1 sequence (P08684 whole entry): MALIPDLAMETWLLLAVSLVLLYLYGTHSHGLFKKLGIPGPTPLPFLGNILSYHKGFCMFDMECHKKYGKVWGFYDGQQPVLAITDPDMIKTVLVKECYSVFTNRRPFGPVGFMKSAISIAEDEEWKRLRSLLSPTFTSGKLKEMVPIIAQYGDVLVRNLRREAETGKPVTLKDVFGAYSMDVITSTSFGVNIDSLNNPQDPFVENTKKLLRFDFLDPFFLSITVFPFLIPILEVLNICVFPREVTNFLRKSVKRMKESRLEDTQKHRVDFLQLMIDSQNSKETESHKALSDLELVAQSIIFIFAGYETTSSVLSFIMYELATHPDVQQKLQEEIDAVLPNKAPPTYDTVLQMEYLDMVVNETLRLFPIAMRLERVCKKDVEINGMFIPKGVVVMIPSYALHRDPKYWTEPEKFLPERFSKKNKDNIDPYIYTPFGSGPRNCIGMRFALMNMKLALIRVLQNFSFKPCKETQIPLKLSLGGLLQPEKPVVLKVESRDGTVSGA

COc1ccc(CNC(=O)C(=O)NCCc2ccccn2)c(OC)c1 [S336, N^1-(2,4-dimethoxybenzyl)-N^2-(2-(pyridin-2-yl)ethyl)oxalamide]
Mutagenicity, conclusion [1]: non-mutagenic | Reverse mutation result [2]: weakly positive | AUC0-last ([3]; iv 0.1 mg/kg bw): 65.0 ± 1.3 ng·h/mL | Cmax ([3]; iv 0.1 mg/kg bw): 207 ± 25.8 ng/mL | Tmax ([3]; iv 0.1 mg/kg bw): 1.8 min | t1/2 ([3]; iv 0.1 mg/kg bw): 25.2 min | % F ([3]; oral gavage 10 mg/kg bw): 89.4% | AUC0-last ([3]; oral gavage 10 mg/kg bw): 5809 ± 444 ng·h/mL | Cmax ([3]; oral gavage 10 mg/kg bw): 7027 ± 925 ng/mL | Tmax ([3]; oral gavage 10 mg/kg bw): 15 min | t1/2 ([3]; oral gavage 10 mg/kg bw): 41.4 min | % F ([3]; oral gavage 30 mg/kg bw): 114.2% | AUC0-last ([3]; oral gavage 30 mg/kg bw): 22260 ± 727 ng·h/mL | Cmax ([3]; oral gavage 30 mg/kg bw): 23430 ± 1436 ng/mL | Tmax ([3]; oral gavage 30 mg/kg bw): 11.4 min | t1/2 ([3]; oral gavage 30 mg/kg bw): 42.6 min | % F ([3]; oral gavage 100 mg/kg bw): 134.6% | AUC0-last ([3]; oral gavage 100 mg/kg bw): 87490 ± 13350 ng·h/mL | Cmax ([3]; oral gavage 100 mg/kg bw): 36270 ± 6004 ng/mL | Tmax ([3]; oral gavage 100 mg/kg bw): 15 min | t1/2 ([3]; oral gavage 100 mg/kg bw): 58.8 min | Fold increase in AUClast for 10-fold increase in oral dose [3]: 15.1 fold | NOEL [4]: at least 100 mg/kg bw/day | Clastogenicity [5]: non-clastogenic | Reverse mutation result [6]: weakly positive | Micronucleated polychromatic erythrocytes vs negative control ([7]; up to 800 mg/kg bw, 24, 36, 48 h): no statistically significant differences | Maximum tolerated dose [7]: 800 mg/kg bw

COc1cccc(CNC(=O)C(=O)NCCc2ccccn2)c1OC [S5456, N^1-(2,3-dimethoxybenzyl)-N^2-(2-(pyridin-2-yl)ethyl)oxalamide]
Significant off-target activities [8]: No other significant off-target activities | NOEL [9]: 140 mg/kg bw/day | AUC0-last ([10]; female, iv 1.0 mg/kg bw): 817 ± 186 ng·h/mL | Cmax ([10]; female, iv 1.0 mg/kg bw): 2398 ± 391 ng/mL | Tmax ([10]; female, iv 1.0 mg/kg bw): 1.8 min | t1/2 ([10]; female, iv 1.0 mg/kg bw): 19.2 min | % F [10, 15]: 51.4% | AUC0-last [10, 15]: 4201 ± 1013 ng·h/mL | Cmax [10, 15]: 3258 ± 1087 ng/mL | Tmax [10, 15]: 15 min | t1/2 [10, 15]: 72 min | % F [10, 16]: 108.6% | AUC0-last [10, 16]: 26610 ± 7306 ng·h/mL | Cmax [10, 16]: 10980 ± 1500 ng/mL | Tmax [10, 16]: 19.8 min | t1/2 [10, 16]: 95.4 min | % F [10, 17]: 250.2% | AUC0-last [10, 17]: 204400 ± 44540 ng·h/mL | Cmax [10, 17]: 34670 ± 4196 ng/mL | Tmax [10, 17]: 55.2 min | t1/2 [10, 17]: 175 min | Fold increase in AUClast for 10-fold increase in oral dose ([10]; female): 48.7 fold | AUC0-last ([10]; male, iv 1.0 mg/kg bw): 757 ± 112 ng·h/mL | Cmax ([10]; male, iv 1.0 mg/kg bw): 2633 ± 363 ng/mL | Tmax ([10]; male, iv 1.0 mg/kg bw): 1.8 min | t1/2 ([10]; male, iv 1.0 mg/kg bw): 19.2 min | % F ([10]; male, oral gavage 10 mg/kg bw): 39.6% | AUC0-last ([10]; male, oral gavage 10 mg/kg bw): 3001 ± 498 ng·h/mL | Cmax ([10]; male, oral gavage 10 mg/kg bw): 3120 ± 787 ng/mL | Tmax ([10]; male, oral gavage 10 mg/kg bw): 15 min | t1/2 ([10]; male, oral gavage 10 mg/kg bw): 57 min | % F ([10]; male, oral gavage 30 mg/kg bw): 42.0% | AUC0-last ([10]; male, oral gavage 30 mg/kg bw): 9535 ± 4190 ng·h/mL | Cmax ([10]; male, oral gavage 30 mg/kg bw): 7643 ± 2404 ng/mL | Tmax ([10]; male, oral gavage 30 mg/kg bw): 18.6 min | t1/2 ([10]; male, oral gavage 30 mg/kg bw): 65.4 min | % F ([10]; male, oral gavage 100 mg/kg bw): 73.9% | AUC0-last ([10]; male, oral gavage 100 mg/kg bw): 55950 ± 19820 ng·h/mL | Cmax ([10]; male, oral gavage 100 mg/kg bw): 33070 ± 14550 ng/mL | Tmax ([10]; male, oral gavage 100 mg/kg bw): 15 min | t1/2 ([10]; male, oral gavage 100 mg/kg bw): 81 min | Fold increase in AUClast for 10-fold increase in oral dose ([10]; male): 18.6 fold | % inhibition at 10 μM [11]: 51% | % inhibition at 10 μM, any CYP isozyme of the panel [12]: < 50%

C[C@]12CC[C@H]3[C@@H](CCC4=CC(=O)CC[C@@]43C)[C@@H]1CC[C@@H]2O [testosterone, reference compound]
Turnover [13]: greater than 85% | Turnover [14]: greater than 85%
